US20120283216A1, “FUNGICIDAL 2-(BICYCLIC ARYLOXY)CARBOXAMIDES” (priority 2009, published 2012)

Legend:
Format in all cases: in vivo
[1] = tested on: Blumeria graminis f. sp. tritici; experiment: Test A: wheat powdery mildew, preventive spray on wheat seedlings, visual disease rating; details: preventive spray at 40 ppm, rated 8 days after inoculation; for pest or weed control at 40 ppm: Blumeria graminis, 192 h, read-out: Test A disease control rating (100 = 100% disease control, 0 = no disease control relative to the controls)
How it was run: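 Wheat seedlings sprayed to run-off with 40 ppm compound (equivalent to 800 g/ha) in acetone/water with 250 ppm surfactant, then dusted with B. graminis spores next day. Held at 20° C. for 8 days before visual rating, 0–100 scale as % disease control relative to controls.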

[2] = tested on: Septoria tritici; experiment: Test B: wheat leaf blotch, preventive spray on wheat seedlings, visual disease rating; details: preventive spray at 40 ppm, rated after 48 h + 19 days; for pest or weed control at 40 ppm: Zymoseptoria tritici, 504 h, read-out: Test B disease control rating (100 = 100% disease control, 0 = no disease control relative to the controls)
How it was run: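 Wheat seedlings were sprayed to run-off with 40 ppm compound (≈800 g/ha) in acetone/water with 250 ppm surfactant, then inoculated with Septoria tritici spores the next day. After 48 h saturated humidity at 20° C and 19 days in a growth chamber at 20° C, disease control was rated visually (0–100% vs controls).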

[3] = tested on: Botrytis cinerea; experiment: Test C: tomato botrytis, preventive spray on tomato seedlings, visual disease rating; details: preventive spray at 40 ppm, rated after 48 h + 3 days; for pest or weed control at 40 ppm: Botrytis cinerea, 120 h, read-out: Test C disease control rating (100 = 100% disease control, 0 = no disease control relative to the controls)
How it was run: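 Compounds applied at 40 ppm (≈800 g/ha) in acetone/water with surfactant, sprayed to run-off on tomato seedlings. Inoculated next day with B. cinerea spores; 48 h saturated humidity at 20 °C, then 3 days at 27 °C. Visual rating as % disease control versus untreated controls.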

| SMILES | Test A disease control rating (100 = 100% disease control, 0 = no disease control relative to the controls) [1] [%] | Test B disease control rating (100 = 100% disease control, 0 = no disease control relative to the controls) [2] [%] | Test C disease control rating (100 = 100% disease control, 0 = no disease control relative to the controls) [3] [%] | pest or weed control at 40 ppm [1] [%] | pest or weed control at 40 ppm [2] [%] | pest or weed control at 40 ppm [3] [%] |
| --- | --- | --- | --- | --- | --- | --- |
| C#CC(C)(C)NC(=O)C(OC)Oc1ccc2ccc(OC)cc2c1 (stereo not drawn) [Compound 82] | 96 | 99 | 100 | – | – | – |
| COCC(C)(C)NC(=O)C(OC)Oc1ccc2ccc(OC)cc2c1 (stereo not drawn) [Compound 83] | 96 | 99 | 100 | – | – | – |
| CCC(Oc1ccc2ccc(OC)cc2c1)C(=O)NC(C)(C)C(=O)OC (stereo not drawn) [Compound 84] | 0 | 84 | 100 | – | – | – |
| C#CC1(NC(=O)C(CC)Oc2ccc3ccc(OC)cc3c2)CCCCC1 (stereo not drawn) [Compound 85] | – | – | – | 0 | 84 | 99 |
| C#CC(CC)(CC)NC(=O)C(CC)Oc1ccc2ccc(OC)cc2c1 (stereo not drawn) [Compound 86] | 0 | 19 | 19 | – | – | – |
| CCC(Oc1ccc2ccc(OC)cc2c1)C(=O)NC(C)(C)C#N (stereo not drawn) [Compound 87] | 0 | 100 | 100 | – | – | – |
| CCC(Oc1ccc2ccc(OC)cc2c1)C(=O)NC(C)(C)COC (stereo not drawn) [Compound 88] | 99 | 100 | 100 | – | – | – |
| CCC(Oc1ccc2ccc(O)cc2c1)C(=O)NC(C)(C)C (stereo not drawn) [Compound 89] | – | – | – | 0 | 63 | 86 |
| COCC(C)(C)NC(=O)C(OC)Oc1ccc2ccc(Br)cc2c1 (stereo not drawn) [Compound 90, 2-[(7-bromo-2-naphthalenyl)oxy]-2-methoxy-N-(2-methoxy-1,1-dimethylethyl)acetamide] | – | – | – | 100 | 100 | 100 |
| CCC(Oc1ccc2ccc(SC)cc2c1)C(=O)NC(C)(C)COC (stereo not drawn) [Compound 91] | 97 | 100 | 100 | – | – | – |
| CCC(Oc1ccc2ccc(I)cc2c1)C(=O)NC(C)(C)COC (stereo not drawn) [Compound 92] | 100 | 100 | 100 | – | – | – |
| COC(Oc1ccc2ccc(Br)cc2c1)C(=O)NC(C)(C)C#N (stereo not drawn) [Compound 93] | 95 | 100 | 100 | – | – | – |
| C#CC(C)(C)NC(=O)C(OC)Oc1ccc2ccc(Br)cc2c1 (stereo not drawn) [Compound 94] | 99 | 100 | 100 | – | – | – |
| CCC(Oc1ccc2ccc(C#C[Si](C)(C)C)cc2c1)C(=O)NC(C)(C)COC (stereo not drawn) [Compound 96] | 0 | 100 | 99 | – | – | – |
| C#Cc1ccc2ccc(OC(CC)C(=O)NC(C)(C)COC)cc2c1 (stereo not drawn) [Compound 97, 2-[(7-ethynyl-2-naphthalenyl)oxy]-N-(2-methoxy-1,1-dimethylethyl)-butanamide] | – | – | – | 100 | 100 | 99 |
| CCC(C)(C)NC(=O)C(OC)Oc1ccc2ccc(Br)cc2c1 (stereo not drawn) [Compound 101] | 92 | 100 | 100 | – | – | – |

| SMILES | Test A disease control rating (100 = 100% disease control, 0 = no disease control relative to the controls) [1] [%] | Test B disease control rating (100 = 100% disease control, 0 = no disease control relative to the controls) [2] [%] | Test C disease control rating (100 = 100% disease control, 0 = no disease control relative to the controls) [3] [%] | pest or weed control at 40 ppm [1] [%] | pest or weed control at 40 ppm [2] [%] | pest or weed control at 40 ppm [3] [%] |
| --- | --- | --- | --- | --- | --- | --- |
| CCC(Oc1ccc2ccc(Br)cc2c1)C(=O)NC(C)(C)CC (stereo not drawn) [Compound 102] | 0 | 96 | 61 | – | – | – |
| COCC(C)(C)NC(=O)C(OC)Oc1ccc2ccc(I)cc2c1 (stereo not drawn) [Compound 103, 2-[(7-iodo-2-naphthalenylyl)oxy]-2-methoxy-N-(2-methoxy-1,1-dimethylethyl)acetamide] | 100 | 100 | 100 | – | – | – |
| COC(Oc1ccc2ccc(I)cc2c1)C(=O)NC(C)(C)C#N (stereo not drawn) [Compound 104] | 94 | 100 | 99 | – | – | – |
| COCC(C)(C)NC(=O)C(OC)Oc1ccc2ccc(C#C[Si](C)(C)C)cc2c1 (stereo not drawn) [Compound 105] | 79 | 100 | 90 | – | – | – |
| C#Cc1ccc2ccc(OC(OC)C(=O)NC(C)(C)COC)cc2c1 (stereo not drawn) [Compound 106, 2-[(7-ethynyl-2-naphthalenyl)oxy]-2-methoxy-N-(2-methoxy-1,1-dimethylethyl)acetamide] | – | – | – | 100 | 100 | 99 |
| CC#Cc1ccc2ccc(OC(CC)C(=O)NC(C)(C)COC)cc2c1 (stereo not drawn) [Compound 107, N-(2-methoxy-1,1-dimethylethyl)-2-[[7-(1-propyn-1-yl)-2-naphthalenyl]oxy]butanamide] | – | – | – | 100 | 100 | 99 |
| CC#Cc1ccc2ccc(OC(OC)C(=O)NC(C)(C)COC)cc2c1 (stereo not drawn) [Compound 108, 2-methoxy-N-(2-methoxy-1,1-dimethylethyl)-2-[[7-(1-propyn-1-yl)-2-naphthalenyl]oxy]acetamide] | – | – | – | 100 | 100 | 48 |
| C#Cc1ccc2ccc(OC(CC)C(=O)NC(C)(C)C)cc2c1 (stereo not drawn) [Compound 109, N-(1,1-dimethylethyl)-2-[(7-ethynyl-2-naphthalenyl)oxy]butanamide] | – | – | – | 100 | 100 | 99 |
| C#Cc1ccc2ccc(OC(CC)C(=O)NC(C)(C)C#N)cc2c1 (stereo not drawn) [Compound 110, N-(1-cyano-1-methylethyl)-2-[(7-ethynyl-2-naphthalenyl)oxy]butanamide] | – | – | – | 100 | 100 | 100 |
| C#Cc1ccc2ccc(OC(CC)C(=O)NC(C)(C)C#CC)cc2c1 (stereo not drawn) [Compound 111, N-(1,1-dimethyl-2-butyn-1-yl)-2-[(7-ethynyl-2-naphthalenyl)oxy]butanamide] | – | – | – | 100 | 100 | 100 |
| CCOC(Oc1ccc2ccc(OC)cc2c1)C(=O)NC(C)(C)COC (stereo not drawn) [Compound 113] | 97 | 100 | 99 | – | – | – |
| CCOC(Oc1ccc2ccc(OC)cc2c1)C(=O)NC(C)(C)C (stereo not drawn) [Compound 114] | – | – | – | 90 | 99 | 99 |
| C#CC(C)(C)NC(=O)C(OCC)Oc1ccc2ccc(OC)cc2c1 (stereo not drawn) [Compound 115] | 79 | 99 | 97 | – | – | – |
| CCOC(Oc1ccc2ccc(OC)cc2c1)C(=O)NC(C)(C)C#N (stereo not drawn) [Compound 116] | 13 | 99 | 99 | – | – | – |
| CCOC(Oc1ccc2ccc(OC)cc2c1)C(=O)NC(C)(C)CC (stereo not drawn) [Compound 117] | 0 | 93 | 98 | – | – | – |
